Assay results published in patent publication US20230167088A1, “1-PYRAZINYLPYRAZOLYL-3-OXYALKYL ACIDS AND THEIR DERIVATIVES, AND THEIR USE FOR CONTROL OF UNDESIRED PLANT GROWTH” (BAYER AKTIENGESELLSCHAFT, priority 2020, published 2023).

Legend:
ECHCG = assay: Herbicidal pre-emergence action 2b (doubly sown, 1280 g/ha); type: in vivo, Echinochloa crus-galli; details: doubly sown pots, dosage 1280 g/ha, visual scoring after about 3 weeks
From the text: (§1) [table] b) Seeds of mono- and dicotyledonous weed plants are placed in plastic pots in sandy loam soil (doubly sown with one species each of mono- or dicotyledonous weed plants per pot) and covered with soil. The compounds of the invention, formulated in the form of wettable powders (WP) or as emulsion concentrates (EC), are then applied onto the surface of the covering soil as aqueous suspension or emulsion with addition of 0.5% additive at a water application rate equivalent to 600 litres per hectare. After the treatment, the pots are placed in a greenhouse and kept under good growth conditions for the trial plants. After about 3 weeks, the effect of the preparations is scored visually in comparison with untreated controls as percentages. For example, 100% activity=the plants have died, 0% activity=like control plants. Tables B16 to B21 below show the effects of selected compounds of the general formula (I) according to Tables 1 and 2 on various harmful plants and at an application rate corresponding to 1280 g/ha, which were obtained by the experimental procedure mentioned above.

POAAN = assay: as above; type: in vivo, Poa annua; details: doubly sown pots, dosage 1280 g/ha, visual scoring after about 3 weeks
From the text: as §1

STEME = assay: as above; type: in vivo, Stellaria media; details: doubly sown pots, dosage 1280 g/ha, visual scoring after about 3 weeks
From the text: as §1

AMARE [1] = assay: as above; type: in vivo, Amaranthus retroflexus; details: doubly sown pots, dosage 1280 g/ha, visual scoring after about 3 weeks
From the text: as §1

MATIN = assay: as above; type: in vivo, Matricaria inodora; details: doubly sown pots, dosage 1280 g/ha, visual scoring after about 3 weeks
From the text: as §1

AMARE [2] = assay: Herbicidal pre-emergence action 2a (greenhouse pots, visual scoring); type: in vivo, Amaranthus retroflexus; details: dosage 320 g/ha, visual scoring after about 3 weeks vs untreated controls
From the text: (§2) [table] a) Seeds of monocotyledonous and dicotyledonous weed plants and crop plants are placed in plastic or organic plant pots and covered with soil. The compounds of the invention, formulated in the form of wettable powders (WP) or as emulsion concentrates (EC), are then applied onto the surface of the covering soil as aqueous suspension or emulsion with addition of 0.5% additive at a water application rate of 600 1/ha (converted). After the treatment, the pots are placed in a greenhouse and kept under good growth conditions for the trial plants. After about 3 weeks, the effect of the preparations is scored visually in comparison with untreated controls as percentages. For example, 100% activity=the plants have died, 0% activity=like control plants. Tables B1 to B15 below show the effects of selected compounds of the general formula (I) according to Tables 1 and 2 on various harmful plants and an application rate corresponding to 320 g/ha and/or 80 g/ha, which were obtained by the experimental procedure mentioned above.

AMARE [3] = assay: Herbicidal post-emergence action 1a (greenhouse pots, visual rating); type: in vivo, Amaranthus retroflexus; details: visual rating about 3 weeks after treatment
Protocol: (§3) [table] a) Seeds of monocotyledonous and dicotyledonous weeds and crop plants are placed in sandy loam in plastic or organic plant pots, covered with soil and cultivated in a greenhouse under controlled growth conditions. 2 to 3 weeks after sowing, the test plants are treated at the one-leaf stage. The compounds of the invention, formulated in the form of wettable powders (WP) or as emulsion concentrates (EC), are then sprayed onto the green parts of the plants as aqueous suspension or emulsion with addition of 0.5% additive at a water application rate of 600 1/ha (converted). After the test plants have been kept in the greenhouse under optimum growth conditions for about 3 weeks, the activity of the preparations is rated visually in comparison to untreated controls. For example, 100% activity=the plants have died, 0% activity=like control plants. Tables A1 to A15 below show the effects of selected compounds of the general formula (I) according to Tables 1 and 2 on various harmful plants and an application rate corresponding to 320 g/ha and/or 80 g/ha, which were obtained by the experimental procedure mentioned above.

VERPE [4] = assay: as above; type: in vivo, Veronica persica; details: visual rating about 3 weeks after treatment
Protocol: as §3

SETVI [5] = assay: as above; type: in vivo, Setaria viridis; details: rated visually about 3 weeks after treatment, 100% = plants have died, 0% = like control plants
Protocol: as §3

SETVI [6] = assay: Herbicidal pre-emergence action 2a (greenhouse pots, visual scoring); type: in vivo, Setaria viridis; details: dosage 320 g/ha, visual scoring after about 3 weeks vs untreated controls
From the text: as §2

LOLRI = assay: as above; type: in vivo, Lolium rigidum; details: dosage 320 g/ha, visual scoring after about 3 weeks vs untreated controls
From the text: as §2

VIOTR = assay: Herbicidal post-emergence action 1a (greenhouse pots, visual rating); type: in vivo, Viola tricolor; details: dosage 320 g/ha, visual rating about 3 weeks after treatment
Protocol: as §3

VERPE [7] = assay: Herbicidal pre-emergence action 2a (greenhouse pots, visual scoring); type: in vivo, Veronica persica; details: dosage 320 g/ha, visual scoring after about 3 weeks vs untreated controls
From the text: as §2

POLCO = assay: Herbicidal post-emergence action 1a (greenhouse pots, visual rating); type: in vivo, Polygonum convolvulus; details: visual rating about 3 weeks after treatment
Protocol: as §3

ALOMY = assay: Herbicidal pre-emergence action 2a (greenhouse pots, visual scoring); type: in vivo, Alopecurus myosuroides; details: dosage 320 g/ha, visual scoring after about 3 weeks
From the text: as §2

ABUTH = assay: Herbicidal post-emergence action 1a (greenhouse pots, visual rating); type: in vivo, Abutilon theophrasti; details: dosage 80 g/ha, visual rating about 3 weeks after treatment
Protocol: as §3

## C=CCNC(=O)COc1nn(-c2cnccn2)c(-c2cccc(F)c2)c1Br [II-01]
ECHCG
  Pre-emergence action at 1280 g/ha against ECHCG in %: 90%
POAAN
  Pre-emergence action at 1280 g/ha against POAAN in %: 100%
STEME
  Pre-emergence action at 1280 g/ha against STEME in %: 100%
AMARE [1]
  Pre-emergence action at 1280 g/ha against AMARE in %: 100%
MATIN
  Pre-emergence action at 1280 g/ha against MATIN in %: 100%

## CS(=O)(=O)NC(=O)COc1nn(-c2cnccn2)c(-c2ccc(F)nc2)c1Br [II-14]
AMARE [2]
  Pre-emergence action against AMARE in %: 80%

## COC(=O)CNC(=O)COc1nn(-c2cnccn2)c(-c2ccc(F)nc2)c1Br [II-08]
AMARE [3]; dosage 80 g/ha
  Post-emergence action against AMARE in %: 80%
AMARE [2]
  Pre-emergence action against AMARE in %: 90%

## COC(=O)C(C)Oc1nn(-c2nccnc2F)c(-c2ccc(F)nc2)c1Br (racemic) [Example I-78]
VERPE [4]; dosage 320 g/ha
  Post-emergence action against VERPE in %: 80%
SETVI [5]; Dosage 80 g/ha
  Post-emergence action against SETVI in %: 80%
SETVI [5]; Dosage 320 g/ha
  Post-emergence action against SETVI in %: 100%
AMARE [2]
  Pre-emergence action against AMARE in %: 80%
SETVI [6]
  Pre-emergence action against SETVI in %: 90%

## COC(=O)[C@@H](C)Oc1nn(-c2cnccn2)c(-c2cccc(F)c2)c1Br [Example 1-20]
LOLRI
  Pre-emergence action against LOLRI in %: 100%
VIOTR
  Post-emergence action against VIOTR in %: 90%

## CN(C)S(=O)(=O)NC(=O)COc1nn(-c2cnccn2)c(-c2ccc(F)nc2)c1Br [II-12]
AMARE [2]
  Pre-emergence action against AMARE in %: 80%
SETVI [6]
  Pre-emergence action against SETVI in %: 100%

## COC(=O)[C@@H](C)Oc1nn(-c2cnccn2)c(-c2ccnnc2)c1C#N [Example I-32]
VERPE [7]
  Pre-emergence action against VERPE in %: 90%

## COC(=O)[C@@H](C)Oc1nn(-c2nccnc2F)c(-c2ccc(F)nc2)c1Br [Example I-80]
LOLRI
  Pre-emergence action against LOLRI in %: 80%
AMARE [3]; dosage 80 g/ha
  Post-emergence action against AMARE in %: 80%
AMARE [3]; dosage 320 g/ha
  Post-emergence action against AMARE in %: 80%
AMARE [2]
  Pre-emergence action against AMARE in %: 100%
VERPE [7]
  Pre-emergence action against VERPE in %: 80%
POLCO; dosage 320 g/ha
  Post-emergence action against POLCO in %: 80%
ALOMY
  Pre-emergence action against ALOMY in %: 100%

## CCOC(=O)CCNC(=O)COc1nn(-c2cnccn2)c(-c2ccc(F)nc2)c1Br [II-09]
VERPE [4]; dosage 80 g/ha
  Post-emergence action against VERPE in %: 90%
ABUTH
  Post-emergence action against ABUTH in %: 90%
AMARE [3]; dosage 80 g/ha
  Post-emergence action against AMARE in %: 90%
POLCO; dosage 80 g/ha
  Post-emergence action against POLCO in %: 80%
